The target of the first assay is T1, IRAK4 (Homo sapiens, UniProt Q9NWZ3).
T1 sequence (Q9NWZ3 1-460): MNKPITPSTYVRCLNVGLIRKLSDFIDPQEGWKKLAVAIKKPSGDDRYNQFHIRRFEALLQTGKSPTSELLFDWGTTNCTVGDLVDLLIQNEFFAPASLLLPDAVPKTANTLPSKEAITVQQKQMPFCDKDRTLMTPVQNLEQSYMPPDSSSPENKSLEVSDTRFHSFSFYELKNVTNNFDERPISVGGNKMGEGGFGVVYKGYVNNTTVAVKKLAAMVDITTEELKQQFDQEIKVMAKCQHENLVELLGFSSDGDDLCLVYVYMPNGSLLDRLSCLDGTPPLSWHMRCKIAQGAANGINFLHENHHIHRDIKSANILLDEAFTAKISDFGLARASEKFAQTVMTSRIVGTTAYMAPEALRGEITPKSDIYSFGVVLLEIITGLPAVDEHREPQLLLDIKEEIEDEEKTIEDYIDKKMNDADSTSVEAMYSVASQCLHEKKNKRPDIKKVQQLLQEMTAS
Nature of the assay: biochemical.
Settings: not given
Consider `COc1cc2nc(C3CCOCC3)cn2cc1C(=O)Nc1cccc(CO)n1` [Example 202], for which it took 0.0137 µM to reach half-maximal inhibition (IC50).

Turning to `CCCOc1nc(C(=O)Nc2cccc(C(F)F)n2)cn2cc(C3CCOCC3)nc12` [Example 335, N-(6-(difluoromethyl)pyridin-2-yl)-8-propoxy-2-(tetrahydro-2H-pyran-4-yl)imidazo[1,2-a]pyrazine-6-carboxamide], it took 0.0006 µM to reach half-maximal inhibition (IC50).

Take `CCOc1cc2nc([C@H]3C[C@@H]3F)cn2cc1C(=O)Nc1cccc(OC)n1` (single isomer, unassigned) [Example 66]: the IC50 (usually the concentration that gives 50% inhibition) was 0.025 µM.

`CCOc1nc(C(=O)Nc2cccc(C(F)F)n2)cn2cc([C@@]34CC[C@@](C)(C3)OC4)nc12` (single isomer, unassigned) [Example 601] displayed a half-maximal inhibitory concentration (IC50) of 0.0019 µM.

As for `CC(C)Oc1cc2nc(C34CC(C#N)(C3)C4)cn2cc1C(=O)Nc1cccc(C(F)F)n1` [Example 402, 2-(3-Cyanobicyclo[1.1.1]pentan-1-yl)-N-(6-(difluoromethyl)pyridin-2-yl)-7-isopropoxyimidazo[1,2-a]pyridine-6-carboxamide], the IC50 was determined as 0.0002 µM.

The compound `CC(C)Oc1nc(C(=O)Nc2cnn3cccnc23)cn2cc(C34CCC(C)(CC3)OC4)nc12` [Example 428, 8-Isopropoxy-2-(1-methyl-2-oxabicyclo[2.2.2]octan-4-yl)-N-(pyrazolo[1,5-a]pyrimidin-3-yl)imidazo[1,2-a]pyrazine-6-carboxamide] came in with an IC50 of 0.0016 µM.

`CC(C)Oc1cc2nc(C34COC(C)(C3)C4)c(F)n2cc1C(=O)Nc1cccc2ncnn12` [Example 329, N-([1,2,4]triazolo[1,5-a]pyridin-5-yl)-3-fluoro-7-isopropoxy-2-(1-methyl-2-oxabicyclo[2.1.1]hexan-4-yl)imidazo[1,2-a]pyridine-6-carboxamide trifluoroactate] had an IC50 of 0.0012 µM.

In turn, `CCn1cccc(NC(=O)c2cn3cc(C45CCC(C)(CC4)OC5)nc3cc2OC2CCC2)c1=O` [Example 420, 7-Cyclobutoxy-N-(1-ethyl-2-oxo-1,2-dihydropyridin-3-yl)-2-(1-methyl-2-oxabicyclo[2.2.2]octan-4-yl)imidazo[1,2-a]pyridine-6-carboxamide] yielded an IC50 of 0.0003 µM.

Consider `COc1cc2nc(C3CCOCC3)cn2cc1C(=O)Nc1ccn(C2CC2(F)F)n1` (stereo not shown) [Example 197], for which the IC50 is 0.166 µM.

`CC(C)Oc1nc2nc(C34COC(C)(C3)C4)cn2cc1C(=O)Nc1cccnc1OC(F)F` [Example 389, N-(2-(difluoromethoxy)pyridin-3-yl)-7-isopropoxy-2-(1-methyl-2-oxabicyclo[2.1.1]hexan-4-yl)imidazo[1,2-a]pyrimidine-6-carboxamide] returned an IC50 of 0.0032 µM.

Regarding `COc1cc2nc(C3CCOCC3)cn2cc1C(=O)Nc1cccc(C)c1F` [Example 110], the half-inhibitory concentration (IC50) turned out to be 0.0082 µM.

For `COc1cccc(NC(=O)c2cn3cc(C4CCOCC4)nc3cc2OCCC2CCOC2)n1` (stereo not shown) [Example 435, N-(6-methoxypyridin-2-yl)-2-(tetrahydro-2H-pyran-4-yl)-7-(2-(tetrahydrofuran-3-yl)ethoxy)imidazo[1,2-a]pyridine-6-carboxamide], the IC50 is 0.0051 µM.

In turn, `Cc1cnc2c(NC(=O)c3cn4cc(C56CCC(C5)OC6)nc4nc3OC(C)C)cnn2c1` (stereo not shown) [Example 433] returned an IC50 of 0.0006 µM.

As for `CCOc1nc(C(=O)Nc2cc(F)cnc2OC)cn2cc([C@H]3CCCOC3)nc12` (single isomer, unassigned) [Example 595], the IC50 stood at 0.0128 µM.

Consider `CCOc1nc(C(=O)Nc2cccc(F)c2OC)cn2cc(C34COC(C)(C3)C4)nc12` [Example 487, 8-Ethoxy-N-(3-fluoro-2-methoxyphenyl)-2-(1-methyl-2-oxabicyclo[2.1.1]hexan-4-yl)imidazo[1,2-a]pyrazine-6-carboxamide], for which the IC50 was 0.0027 µM.

`C[C@]12CC[C@](c3cn4cc(C(=O)Nc5cccc(C(F)F)n5)nc(OC5CCC5)c4n3)(CO1)C2` (single isomer, unassigned) [Example 627] had an IC50 of 0.0004 µM.

In turn, `CC(C)Oc1nc2nc(C34COC(C)(C3)C4)cn2cc1C(=O)Nc1nc(C(F)F)cs1` [Example 367, N-(4-(difluoromethyl)thiazol-2-yl)-7-isopropoxy-2-(1-methyl-2-oxabicyclo[2.1.1]hexan-4-yl)imidazo[1,2-a]pyrimidine-6-carboxamide] yielded an IC50 of 0.0079 µM.

As for `CC(C)Oc1cc2nc(C34COC(C)(C3)C4)cn2cc1C(=O)Nc1cccc2cn(C)nc12` [Example 318, 7-Isopropoxy-N-(2-methyl-2H-indazol-7-yl)-2-(1-methyl-2-oxabicyclo[2.1.1]hexan-4-yl)imidazo[1,2-a]pyridine-6-carboxamide], half-maximal inhibition (IC50) was put at 0.001 µM.

The compound `CC(C)Oc1cc2nc(C34COC(C)(C3)C4)cn2cc1C(=O)Nc1cccc(C(F)(F)F)n1` [Example 245] returned an IC50 of 0.0003 µM.

Take `CC(C)Oc1nc2nc([C@]34CC[C@](C)(C3)OC4)cn2cc1C(=O)Nc1cnn2cccnc12` (single isomer, unassigned) [Example 613]: the midpoint of inhibition, the IC50, lay at 0.0005 µM.

Take `CC(Oc1cc2nc(C34COC(C)(C3)C4)cn2cc1C(=O)Nc1cccc(C(F)F)n1)C(F)(F)F` (stereo not shown) [Example 323, N-(6-(difluoromethyl)pyridin-2-yl)-2-(1-methyl-2-oxabicyclo[2.1.1]hexan-4-yl)-7-((1,1,1-trifluoropropan-2-yl)oxy)imidazo[1,2-a]pyridine-6-carboxamide]: the IC50 came to 0.0007 µM.

As for `CCC(C)Oc1nc2nc(C34COC(C)(C3)C4)cn2cc1C(=O)Nc1cnn2cc(C)cnc12` (single isomer, unassigned) [Example 643], it took 0.0004 µM to reach half-maximal inhibition (IC50).

On to `CCOc1cc2nc([C@@H]3C[C@@H]3F)cn2cc1C(=O)Nc1cccc(OC)n1` [Example 80], for which the midpoint of inhibition, the IC50, lay at 0.029 µM.

Regarding `CC(C)Oc1nc2nc(C34COC(C)(C3)C4)cn2cc1C(=O)Nc1cccc(OC(F)F)n1` [Example 411, N-(6-(difluoromethoxy)pyridin-2-yl)-7-isopropoxy-2-(1-methyl-2-oxabicyclo[2.1.1]hexan-4-yl)imidazo[1,2-a]pyrimidine-6-carboxamide], 0.0008 µM corresponded to half-maximal inhibition (IC50).

`C[C@@H](Oc1cc2nc(C34COC(C)(C3)C4)cn2cc1C(=O)Nc1cccc(C(F)F)n1)C1CC1` (single isomer, unassigned) [Example 655] showed a half-inhibitory concentration (IC50) of 0.0004 µM.

The assay is the same for the next values; noted with them: IRAK4 Biochemical Assay (1 mM ATP, 2 h) IC50 (μM), 1 mM ATP, 2 h, 100 pM IRAK4.
`CC(C)Oc1cc2nc(C34COC(C)(C3)C4)cn2cc1C(=O)Nc1cccc(C(F)F)n1` [Example 96, N-(6-(difluoromethyl)pyridin-2-yl)-7-isopropoxy-2-(1-methyl-2-oxabicyclo[2.1.1]hexan-4-yl)imidazo[1,2-a]pyridine-6-carboxamide] showed an IC50 of 0.0002 µM.

In turn, `CC1(COc2cc3nc(C4CC4)cn3cc2C(=O)Nc2cccc(C(F)F)n2)CCOC1` (stereo not shown) [Example 475, 2-Cyclopropyl-N-(6-(difluoromethyl)pyridin-2-yl)-7-((3-methyltetrahydrofuran-3-yl)methoxy)imidazo[1,2-a]pyridine-6-carboxamide] registered an IC50 of 0.0088 µM.

As to `CC1(COc2cc3nc(C45COC(C)(C4)C5)cn3cc2C(=O)Nc2cccn(C(F)F)c2=O)CCOC1` (stereo not shown) [Example 444, N-(1-(difluoromethyl)-2-oxo-1,2-dihydropyridin-3-yl)-2-(1-methyl-2-oxabicyclo[2.1.1]hexan-4-yl)-7-((3-methyltetrahydrofuran-3-yl)methoxy)imidazo[1,2-a]pyridine-6-carboxamide], the IC50 is 0.0042 µM.

For the origin of these results see patent publication US20230087118A1, “IMIDAZO[1,2-a][sequence] DERIVATIVES AND THEIR USE IN THE TREATMENT OF DISEASE” (priority 2019, published 2023).
